Active and inactive are the calls of the source. The rule behind the calls is not given here.
Columns and labels:
Rattus norvegicus [1] = experiment: Inhibition of right ventricle hypertrophic response to monocrotaline-induced pulmonary arterial hypertension assessed as ratio of right ventricular weight to left ventricle plus septum in Wistar rat at 30 mg/kg administered through oral gavage twice daily for 21 consecutive days starting 24 hrs after monocrotaline challenge; assay type: functional, organism-based
Platelet = experiment: Inhibition of ADP-induced platelet aggregation in human platelet rich plasma pre-incubated for 1 min before ADP addition and measured 3 mins post ADP addition by aggregometry; assay type: functional
[2] = Solubility of the compound in corn oil; assay type: physicochemical
[3] = Solubility of the compound in Gelucire 44/14; assay type: physicochemical
[4] = Solubility of the compound in Safflower oil; assay type: physicochemical
[5] = Solubility of the compound in PEG400; assay type: physicochemical
[6] = Solubility of the compound in Imwitor 742; assay type: physicochemical
[7] = Solubility of the compound in Lauroglycol 90; assay type: physicochemical
[8] = Solubility of the compound in PEG6000; assay type: physicochemical
[9] = Solubility of the compound in Cremophor RH40; assay type: physicochemical
[10] = Solubility of the compound in Gelucire 50/13; assay type: physicochemical
[11] = Solubility of the compound in Labrasol; assay type: physicochemical
[12] = Solubility of the compound in TPGS 1000; assay type: physicochemical
Prostacyclin receptor = Prostacyclin receptor (Homo sapiens, UniProt P43119); experiment: Agonist activity at human recombinant prostacyclin receptor expressed in CHO-K1 cells assessed as induction of cAMP accumulation incubated for 1 hr by HTRF assay; assay type: functional, cell-based
Rattus norvegicus [13] = experiment: Tmax in Sprague-Dawley rat assessed as 2-(((1r,4r)-4-(((4-Chlorophenyl)(phenyl)carbamoy-loxy)methyl)cyclohexyl)methoxy)acetic acid level at 1.25 mg/kg, po by LC/MS/MS method; assay type: ADME, organism-based; conditions: in vivo
[14] = Drug level in bile-duct cannulated male Sprague-Dawley rat treated with sodium 2-(((1r,4r)-4-(((4- Chlorophenyl)(phenyl)carbamoyloxy)methyl)cyclo- hexyl)methoxy)acetate assessed as compound formation in bile at 2 mg/kg, iv; assay type: ADME, organism-based; conditions: in vivo
[15] = Terminal phase half life in Sprague-Dawley rat at 1.25 mg/kg, po after 0.1 to 21 hrs by LC/MS/MS method; assay type: ADME, organism-based; conditions: in vivo, read-out: beta t1/2 (converted)
[16] = Drug level in bile-duct cannulated male Sprague-Dawley rat treated with sodium 2-(((1r,4r)-4-(((4- Chlorophenyl)(phenyl)carbamoyloxy)methyl)cyclo-hexyl)methoxy)acetate assessed as compound formation in urine at 2 mg/kg, iv; assay type: ADME, organism-based; conditions: in vivo
[17] = Terminal phase half life in Sprague-Dawley rat assessed as 2-(((1r,4r)-4-(((4-Chlorophenyl)(phenyl)carbamoy-loxy)methyl)cyclohexyl)methoxy)acetic acid level at 1.25 mg/kg, po after 0.1 to 21 hrs by LC/MS/MS method; assay type: ADME, organism-based; conditions: in vivo
Rattus norvegicus [18] = experiment: AUC(last) in Sprague-Dawley rat assessed as 2-(((1r,4r)-4-(((4-Chlorophenyl)(phenyl)carbamoy-loxy)methyl)cyclohexyl)methoxy)acetic acid level at 1.25 mg/kg, po after 0.1 to 21 hrs by LC/MS/MS method; assay type: ADME, organism-based; parameters: dose 1.25 mg/kg, route oral, time 0 - last; conditions: in vivo
Rattus norvegicus [19] = experiment: Tmax in Sprague-Dawley rat assessed as 2-(((1r,4r)-4-(((4-Chlorophenyl)(phenyl)carbamoy-loxy)methyl)cyclohexyl)methoxy)acetic acid level at 10 mg/kg, po by LC/MS/MS method; assay type: ADME, organism-based; conditions: in vivo
Rattus norvegicus [20] = experiment: Cmax in Sprague-Dawley rat assessed as 2-(((1r,4r)-4-(((4-Chlorophenyl)(phenyl)carbamoy-loxy)methyl)cyclohexyl)methoxy)acetic acid level at 1.25 mg/kg, po after 2.67 hrs by LC/MS/MS method; assay type: ADME, organism-based; parameters: dose 1.25 mg/kg, route oral; conditions: in vivo
[21] = Drug level in bile-duct cannulated male Sprague-Dawley rat treated with sodium 2-(((1r,4r)-4-(((4- Chlorophenyl)(phenyl)carbamoyloxy)methyl)cyclo- hexyl)methoxy)acetate assessed as compound formation at 2 mg/kg, iv; assay type: ADME, organism-based; conditions: in vivo
[22] = Stability of the compound in Imwitor 742 assessed as observable compound degradation after 4 weeks in glass vial at 50 degC; assay type: physicochemical; conditions: 672 h
[23] = Stability of the compound in TPGS 1000 assessed as observable API assay loss after 4 weeks in glass vial at 50 degC; assay type: physicochemical; conditions: 672 h
[24] = Stability of the compound in Imwitor 742 assessed as observable API assay loss after 4 weeks in glass vial at 50 degC; assay type: physicochemical; conditions: 672 h
[25] = Stability of the compound in Cremophor RH40 assessed as observable API assay loss after 4 weeks in glass vial at 50 degC; assay type: physicochemical; conditions: 672 h
[26] = Stability of the compound in Cremophor RH40 assessed as observable compound degradation after 4 weeks in glass vial at 50 degC; assay type: physicochemical; conditions: 672 h
[27] = Stability of the compound in TPGS 1000 assessed as observable compound degradation after 4 weeks in glass vial at 50 degC; assay type: physicochemical; conditions: 672 h

Prostacyclin receptor, sequence (P43119 whole entry): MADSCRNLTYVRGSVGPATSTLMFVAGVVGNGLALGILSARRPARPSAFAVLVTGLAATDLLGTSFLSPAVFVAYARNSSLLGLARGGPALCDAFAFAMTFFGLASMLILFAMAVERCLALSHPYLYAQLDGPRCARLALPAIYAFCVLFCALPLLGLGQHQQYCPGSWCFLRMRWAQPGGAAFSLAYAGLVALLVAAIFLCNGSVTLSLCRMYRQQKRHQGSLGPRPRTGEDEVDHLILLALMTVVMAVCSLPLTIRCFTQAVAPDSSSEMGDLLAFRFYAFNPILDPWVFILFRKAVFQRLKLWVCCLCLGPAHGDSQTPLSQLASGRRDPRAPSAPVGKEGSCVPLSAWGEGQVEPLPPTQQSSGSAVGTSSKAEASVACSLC

| Compound | IC50 (Platelet) [nM] | EC50 (Prostacyclin receptor) [nM] | also measured |
| --- | --- | --- | --- |
| O=C(O)COC[C@H]1CC[C@H](COC(=O)N(c2ccccc2)c2cccc(F)c2)CC1 | 10.5 to 1590 |  | Activity (Rattus norvegicus [1]): Active |
| O=C([O-])COC[C@H]1CC[C@H](COC(=O)N(c2ccccc2)c2ccc(Cl)cc2)CC1.[Na+] |  |  | solubility [2]: < 100 µg/mL; solubility [3]: 1610 µg/mL; solubility [4]: < 100 µg/mL; solubility [5]: 4850 µg/mL; solubility [6]: 16200 µg/mL; solubility [7]: 260 µg/mL; solubility [8]: < 10000 µg/mL; solubility [9]: 7820 µg/mL; solubility [10]: < 10000 µg/mL; solubility [11]: 12980 µg/mL; solubility [12]: 2550 µg/mL |
| O=C(O)COC[C@H]1CC[C@H](COC(=O)N(c2ccccc2)c2ccc(Cl)cc2)CC1 [listing 1 of 2 here] |  |  | Activity (Rattus norvegicus [1]): Active |
| CN(C[C@H]1CC[C@H](COCC(=O)O)CC1)C(=O)N(c1ccccc1)c1ccccc1 | 10.5 to 1590 | 2.7 to 2650 |  |
| O=C(O)COC[C@H]1CC[C@H](COC(=O)N(c2ccccc2)c2cnccn2)CC1 | 10.5 to 1590 | 2.7 to 2650 |  |
| O=C(O)COC[C@H]1CC[C@H](COC(=O)N(c2ccccc2)c2ccc(F)c(Cl)c2)CC1 | 10.5 to 1590 | 2.7 to 2650 |  |
| O=C(O)COC[C@H]1CC[C@H](COC(=O)N(c2ccccc2)c2cc(F)cc(F)c2)CC1 | 10.5 to 1590 | 2.7 to 2650 |  |
| COc1ccccc1N(C(=O)OC[C@H]1CC[C@@H](COCC(=O)O)CC1)c1ccccc1 | 10.5 to 1590 | 2.7 to 2650 |  |
| O=C(O)COC[C@H]1CC[C@H](CNC(=O)N(c2ccccc2)c2ccccc2F)CC1 | 10.5 to 1590 | 2.7 to 2650 |  |
| COc1ccc(N(C(=O)NC[C@H]2CC[C@H](COCC(=O)O)CC2)c2ccccc2)c(C)c1 | 10.5 to 1590 | 2.7 to 2650 |  |
| O=C(O)COC[C@H]1CC[C@H](CNC(=O)N(c2ccccc2)c2cccc(F)c2)CC1 | 10.5 to 1590 | 2.7 to 2650 |  |
| O=C(COC[C@H]1CC[C@H](COC(=O)N(c2ccccc2)c2ccc(Cl)cc2)CC1)NCCS(=O)(=O)O | 10.5 to 1590 |  | Tmax (Rattus norvegicus [13]): 2.67 h; Drug metabolism [14]: Metabolite_Detected; half-life [15]: 3.51 h; Drug metabolism [16]: Metabolite_Notdetected; beta t1/2 [17]: 3.24 h; AUClast (Rattus norvegicus [18]): 935 ng·h/mL; Tmax (Rattus norvegicus [19]): 1.5 h; Cmax (Rattus norvegicus [20]): 214 ng/mL; Drug metabolism [21]: Metabolite_Detected |
| O=C(O)COC[C@H]1CC[C@H](COC(=O)N(c2ccccc2)c2ccc(F)nc2)CC1 | 10.5 to 1590 | 2.7 to 2650 |  |
| O=C(O)COC[C@H]1CC[C@H](COC(=O)N(c2ccc(Cl)cc2)c2cccc(F)c2)CC1 | 10.5 to 1590 | 2.7 to 2650 |  |
| O=C(O)COC[C@H]1CC[C@H](COC(=O)N(c2ccc(F)cc2)c2cccnc2)CC1 | 10.5 to 1590 | 2.7 to 2650 |  |
| O=C(O)COC[C@H]1CC[C@H](COC(=O)N(c2ccccc2)c2ccc(Cl)cc2)CC1 [listing 2 of 2 here] | 10.5 to 1590 |  | Stability [22]: Stable; Stability [23]: Stable; Stability [24]: Stable; Stability [25]: Stable; Stability [26]: Stable; Stability [27]: Stable |
| O=C(O)COC[C@H]1CC[C@H](COC(=O)N(c2cccc(F)c2)c2cccc(OC(F)(F)F)c2)CC1 | 10.5 to 1590 | 2.7 to 2650 |  |
| O=C(O)COC[C@H]1CC[C@H](COC(=O)N(c2ccc(F)cc2)c2cccc(Cl)c2)CC1 | 10.5 to 1590 | 2.7 to 2650 |  |
| COc1ccc(N(C(=O)NC[C@H]2CC[C@H](COCC(=O)O)CC2)c2ccccc2)cc1 | 10.5 to 1590 | 2.7 to 2650 |  |
| COc1cccc(N(C(=O)NC[C@H]2CC[C@H](COCC(=O)O)CC2)c2ccccc2)c1 | 10.5 to 1590 | 2.7 to 2650 |  |
| O=C(O)COC[C@H]1CC[C@H](CNC(=O)N(c2ccccc2)c2ccc(F)cc2)CC1 | 10.5 to 1590 | 2.7 to 2650 |  |
| Cc1ccc(N(C(=O)NC[C@H]2CC[C@H](COCC(=O)O)CC2)c2ccc(C)cc2)cc1 | 10.5 to 1590 | 2.7 to 2650 |  |
